Source: ChEMBL document CHEMBL1201862, “PubChem BioAssay data set” (2004)
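A five-concentration, 48-hour dose response in 96-well plates underlies each endpoint, interpolated linearly between surrounding concentrations. GI50 marks 50% less growth.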 Activity calls are given as the source filed them. Rule as the data show it: active = GI50 up to about 1.1 µM and inactive = higher.

Columns and labels:
Assay in all cases: DTP human tumour cell line panel, 48 h
[1] = tested on: A498
[2] = tested on: SK-MEL-28
[3] = tested on: HL-60
[4] = tested on: RPMI-8226
[5] = tested on: ACHN
[6] = tested on: U-251
[7] = tested on: EKVX
[8] = tested on: DLD-1
[9] = tested on: NCI-H522
[10] = tested on: HCT-116
[11] = tested on: SN12C
[12] = tested on: RXF 393
[13] = tested on: SF-295
[14] = tested on: SK-OV-3
[15] = tested on: LOX IMVI
[16] = tested on: OVCAR-5
[17] = tested on: CAKI-1

| Structure (SMILES) | GI50 [1] | GI50 [2] | GI50 [3] | GI50 [4] | GI50 [5] | GI50 [6] | GI50 [7] | GI50 [8] | GI50 [9] | GI50 [10] | GI50 [11] | GI50 [12] | GI50 [13] | GI50 [14] | GI50 [15] | GI50 [16] | GI50 [17] |
| --- | --- | --- | --- | --- | --- | --- | --- | --- | --- | --- | --- | --- | --- | --- | --- | --- | --- |
| COc1ccc(N2C(=O)C3c4[nH]c5ccccc5c4C4CC(C)(C)CC(C)(C)C4C3C2=O)cc1 (stereo unspecified) | 14.5 µM (inactive) | 14.1 µM (inactive) | 42.5 µM (inactive) | 31.8 µM (inactive) | 14.9 µM (inactive) | 16.8 µM (inactive) | 15.9 µM (inactive) | 27 µM (inactive) | 17.2 µM (inactive) | 13.5 µM (inactive) | 16 µM (inactive) | 12.8 µM (inactive) | 8.05 µM (inactive) | 17.3 µM (inactive) |  |  |  |
| CCCCCCCCCCCCCC(=O)NCO | > 100 µM (inactive) | > 100 µM (inactive) | > 100 µM (inactive) | > 100 µM (inactive) | > 100 µM (inactive) | > 100 µM (inactive) | > 100 µM (inactive) | > 100 µM (inactive) | 86.3 µM (inactive) | > 100 µM (inactive) | > 100 µM (inactive) | > 100 µM (inactive) | > 100 µM (inactive) | > 100 µM (inactive) | > 100 µM (inactive) | > 100 µM (inactive) |  |
| CCCP1(=O)C=C(C)C(=C(Cl)Cl)C(C)=C1 (stereo unspecified) | 68.9 µM (inactive) | 44.1 µM (inactive) | 21.6 µM (inactive) |  | 44.3 µM (inactive) | > 100 µM (inactive) | 83 µM (inactive) | 67.3 µM (inactive) | 18.3 µM (inactive) | 41.2 µM (inactive) | 24.6 µM (inactive) | 25.9 µM (inactive) | 35.2 µM (inactive) |  |  | > 100 µM (inactive) |  |
| CC(C)C(=O)NC(=S)Nc1ccc([N+](=O)[O-])cc1C#N | > 100 µM (inactive) | > 100 µM (inactive) | > 100 µM (inactive) | > 100 µM (inactive) | > 100 µM (inactive) | > 100 µM (inactive) | 63.8 µM (inactive) | > 100 µM (inactive) | > 100 µM (inactive) | > 100 µM (inactive) | 22 µM (inactive) | > 100 µM (inactive) | > 100 µM (inactive) | > 100 µM (inactive) | > 100 µM (inactive) | > 100 µM (inactive) | 66.2 µM (inactive) |
| Brc1ccc(C[P+]2(c3ccccc3)CCCCC2)cc1.[O-][Cl+3]([O-])([O-])[O-] | > 100 µM (inactive) | 63.7 µM (inactive) | 20.4 µM (inactive) | 25.8 µM (inactive) | > 100 µM (inactive) | 29.6 µM (inactive) | > 100 µM (inactive) | > 100 µM (inactive) | 19 µM (inactive) | 68.7 µM (inactive) | > 100 µM (inactive) | > 100 µM (inactive) | > 100 µM (inactive) | > 100 µM (inactive) | 63.2 µM (inactive) | > 100 µM (inactive) |  |
| N#CCCN(c1ccc(/C=N/c2ccc(C(=O)O)cc2)cc1)S(=O)(=O)c1ccccc1 | > 100 µM (inactive) | > 100 µM (inactive) | 41.4 µM (inactive) | > 100 µM (inactive) | > 100 µM (inactive) | > 100 µM (inactive) | > 100 µM (inactive) | > 100 µM (inactive) | > 100 µM (inactive) | > 100 µM (inactive) | > 100 µM (inactive) | > 100 µM (inactive) | > 100 µM (inactive) | > 100 µM (inactive) | > 100 µM (inactive) | > 100 µM (inactive) | > 100 µM (inactive) |
| O=C1/C(=C/c2ccc(Cl)cc2)COc2ccc(Br)cc21 | > 100 µM (inactive) | > 100 µM (inactive) | > 100 µM (inactive) | 6.22 µM (inactive) | > 100 µM (inactive) | > 100 µM (inactive) | > 100 µM (inactive) | > 100 µM (inactive) | 69.7 µM (inactive) | > 100 µM (inactive) |  | 50.5 µM (inactive) | > 100 µM (inactive) | > 100 µM (inactive) | > 100 µM (inactive) | > 100 µM (inactive) |  |
| CCOC(=O)/N=c1/nc(N(C)C)ss1 | > 100 µM (inactive) | > 100 µM (inactive) | > 100 µM (inactive) | > 100 µM (inactive) | > 100 µM (inactive) | > 100 µM (inactive) | > 100 µM (inactive) | > 100 µM (inactive) | > 100 µM (inactive) | > 100 µM (inactive) | > 100 µM (inactive) | > 100 µM (inactive) | > 100 µM (inactive) | > 100 µM (inactive) |  | > 100 µM (inactive) | > 100 µM (inactive) |
| Cc1c(Cl)ccc2c1NC(=O)C2(O)C(C(=O)c1ccccc1)c1ccccc1 (stereo unspecified) | 24 µM (inactive) | 94.6 µM (inactive) | 13.2 µM (inactive) | 25.9 µM (inactive) | 72.4 µM (inactive) | 34.8 µM (inactive) | 43.3 µM (inactive) | 83.9 µM (inactive) | 27.7 µM (inactive) | 75.9 µM (inactive) | 76.6 µM (inactive) | 27.5 µM (inactive) | 36.5 µM (inactive) | > 100 µM (inactive) | 44.2 µM (inactive) | 32.7 µM (inactive) | 58.3 µM (inactive) |
| COc1c(C)n(CCO)ccc1=O | > 100 µM (inactive) | > 100 µM (inactive) | > 100 µM (inactive) | > 100 µM (inactive) | > 100 µM (inactive) | > 100 µM (inactive) | > 100 µM (inactive) | > 100 µM (inactive) | > 100 µM (inactive) | > 100 µM (inactive) | > 100 µM (inactive) | > 100 µM (inactive) | > 100 µM (inactive) | > 100 µM (inactive) | > 100 µM (inactive) | > 100 µM (inactive) | > 100 µM (inactive) |
| COC(=O)C1CCc2nnc(-c3cccnc3)n21 (stereo unspecified) | > 100 µM (inactive) | > 100 µM (inactive) | > 100 µM (inactive) | > 100 µM (inactive) | > 100 µM (inactive) | > 100 µM (inactive) | > 100 µM (inactive) | > 100 µM (inactive) | > 100 µM (inactive) | > 100 µM (inactive) | > 100 µM (inactive) | > 100 µM (inactive) |  | > 100 µM (inactive) |  |  | > 100 µM (inactive) |
| COC(=O)CC(NC(=O)OCc1ccccc1)C(C(=O)OCc1ccccc1)C(C)(OC)OC (stereo unspecified) | 3.95 µM (inactive) | 52.1 µM (inactive) | 15.1 µM (inactive) | 10 µM (inactive) | 26.4 µM (inactive) | 27 µM (inactive) | 29.7 µM (inactive) | 20.9 µM (inactive) |  | 34.3 µM (inactive) | 30.5 µM (inactive) | 16.8 µM (inactive) | 24.6 µM (inactive) |  | 16.6 µM (inactive) |  |  |
| CN1CC[C@@H](c2c(O)cc(O)c3c(=O)cc(-c4ccccc4Cl)oc23)[C@@H](O)C1 | 0.0507 µM (active) | 0.0455 µM (active) | 0.0211 µM (active) | 0.0326 µM (active) | 0.0237 µM (active) | 0.0385 µM (active) | 0.0885 µM (active) | 0.0528 µM (active) | 0.0655 µM (active) | 0.02 µM (active) | 0.0471 µM (active) | 0.0169 µM (active) | 0.0604 µM (active) | 0.608 µM (active) | 0.0191 µM (active) | 0.0384 µM (active) | 0.0343 µM (active) |
| Cc1ccc(NC(=O)C(=O)Cc2cccc[n+]2[O-])cc1C | > 100 µM (inactive) | > 100 µM (inactive) | > 100 µM (inactive) | > 100 µM (inactive) | > 100 µM (inactive) | > 100 µM (inactive) | > 100 µM (inactive) | > 100 µM (inactive) | > 100 µM (inactive) | > 100 µM (inactive) | > 100 µM (inactive) | > 100 µM (inactive) | > 100 µM (inactive) | > 100 µM (inactive) | > 100 µM (inactive) | > 100 µM (inactive) | > 100 µM (inactive) |
| N#CCC(=O)Nc1cccc(C(F)(F)F)c1 | > 100 µM (inactive) | > 100 µM (inactive) | > 100 µM (inactive) |  | > 100 µM (inactive) | > 100 µM (inactive) | > 100 µM (inactive) | > 100 µM (inactive) | > 100 µM (inactive) | > 100 µM (inactive) | > 100 µM (inactive) | > 100 µM (inactive) | > 100 µM (inactive) | > 100 µM (inactive) | > 100 µM (inactive) | > 100 µM (inactive) | > 100 µM (inactive) |
| CCOC(=O)COc1ccc(OCC(=O)OCC)c2c1C(=O)CCCC2=O | 0.281 µM (active) | > 100 µM (inactive) | > 100 µM (inactive) | > 100 µM (inactive) | > 100 µM (inactive) | > 100 µM (inactive) | > 100 µM (inactive) | > 100 µM (inactive) | > 100 µM (inactive) | > 100 µM (inactive) | > 100 µM (inactive) | > 100 µM (inactive) | > 100 µM (inactive) | > 100 µM (inactive) | > 100 µM (inactive) | > 100 µM (inactive) |  |
